According to US20110086759A1, “CHEMICAL COMPOUNDS” (SYNGENTA CROP PROTECTION, INC., priority 2007, published 2011):

Tests used:
Format in all cases: in vivo
[1] = test system: Ipomea hederaceae (IPOHE); assay: Post-emergence biological efficacy, glasshouse pot test; details: Ipomoea hederacea, 312 h; Rate 1,000 g/ha; post-emergence spray; evaluated after 13 days (100=total damage to plant; 0=no damage to plant); read-out: Percentage damage caused to weed species, post-emergence, IPOHE
Outline: (§1)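 Plants were sown in standard soil and grown 8 days in a glasshouse (24/16° C. day/night, 14 hours light, 65% humidity), then sprayed post-emergence at 1000 or 250 g/ha from acetone/water (50:50) with 0.5% Tween 20. Damage was scored visually after 13 days (0 = none, 100 = total).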

Setaria faberi (SETFA) [2] = assay: as above; details: 312 h, Rate 1,000 g/ha, post-emergence spray, evaluated after 13 days (100=total damage to plant; 0=no damage to plant), read-out: Percentage damage caused to weed species, post-emergence, SETFA
Outline: as §1

[3] = test system: Alopecurus myosuroides (ALOMY); assay: as above; details: 312 h, Rate 1,000 g/ha, post-emergence spray, evaluated after 13 days (100=total damage to plant; 0=no damage to plant), read-out: Percentage damage caused to weed species, post-emergence, ALOMY
Outline: as §1

[4] = test system: Amaranthus retoflexus (AMARE); assay: as above; details: Amaranthus retroflexus, 312 h; Rate 1,000 g/ha; post-emergence spray; evaluated after 13 days (100=total damage to plant; 0=no damage to plant); read-out: Percentage damage caused to weed species, post-emergence, AMARE
Outline: as §1

[5] = test system: Echinochloa crus-galli (ECHCG); assay: as above; details: 312 h, Rate 1,000 g/ha, post-emergence spray, evaluated after 13 days (100=total damage to plant; 0=no damage to plant), read-out: Percentage damage caused to weed species, post-emergence, ECHCG
Outline: as §1

Solanum nigrum (SOLNI) [6] = assay: as above; details: 312 h, Rate 1,000 g/ha, post-emergence spray, evaluated after 13 days (100=total damage to plant; 0=no damage to plant), read-out: Percentage damage caused to weed species, post-emergence, SOLNI
Outline: as §1

[7] = test system: Ipomea hederaceae (IPOHE); assay: Pre-emergence biological efficacy, glasshouse pot test; details: Ipomoea hederacea, 312 h; pre-emergence, rate 1,000 g/ha, evaluated after 13 days (100=total damage to plant; 0=no damage); read-out: Percentage damage caused to weed species, IPOHE
Outline: (§2)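 Compound was applied as a spray one day after sowing, at a final dose of 1000 or 250 g/ha. Plants grew under 14 h light, 24/16 °C and 65% humidity, and injury was assessed on day 13 on a 0–100 scale.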

Setaria faberi (SETFA) [8] = assay: as above; details: 312 h, pre-emergence, rate 1,000 g/ha, evaluated after 13 days (100=total damage to plant; 0=no damage), read-out: Percentage damage caused to weed species, SETFA
Outline: as §2

[9] = test system: Alopecurus myosuroides (ALOMY); assay: as above; details: 312 h, pre-emergence, rate 1,000 g/ha, evaluated after 13 days (100=total damage to plant; 0=no damage), read-out: Percentage damage caused to weed species, ALOMY
Outline: as §2

[10] = test system: Amaranthus retoflexus (AMARE); assay: as above; details: Amaranthus retroflexus, 312 h; pre-emergence, rate 1,000 g/ha, evaluated after 13 days (100=total damage to plant; 0=no damage); read-out: Percentage damage caused to weed species, AMARE
Outline: as §2

[11] = test system: Echinochloa crus-galli (ECHCG); assay: as above; details: 312 h, pre-emergence, rate 1,000 g/ha, evaluated after 13 days (100=total damage to plant; 0=no damage), read-out: Percentage damage caused to weed species, ECHCG
Outline: as §2

Solanum nigrum (SOLNI) [12] = assay: as above; details: 312 h, pre-emergence, rate 1,000 g/ha, evaluated after 13 days (100=total damage to plant; 0=no damage), read-out: Percentage damage caused to weed species, SOLNI
Outline: as §2

CCOC(=O)c1nc(C2CC2)nc(NCc2ccco2)c1Cl [Compound 7-125, 5-Chloro-2-cyclopropyl-6-ethoxycarbonyl-4-(2-furanylmethyl-amino)pyrimidine]
pest or weed control at 1000 g/ha [1]: 100%
pest or weed control at 1000 g/ha (Setaria faberi (SETFA) [2]): 90%
pest or weed control at 1000 g/ha [3]: 90%
pest or weed control at 1000 g/ha [4]: 100%
pest or weed control at 1000 g/ha [5]: 80%
pest or weed control at 1000 g/ha (Solanum nigrum (SOLNI) [6]): 90%
pest or weed control at 1000 g/ha [7]: 100%
pest or weed control at 1000 g/ha (Setaria faberi (SETFA) [8]): 80%
pest or weed control at 1000 g/ha [9]: 60%
pest or weed control at 1000 g/ha [10]: 100%
pest or weed control at 1000 g/ha [11]: 90%
pest or weed control at 1000 g/ha (Solanum nigrum (SOLNI) [12]): 100%

O=C(O)c1nc(-c2ccc(Cl)cc2)nc(NCc2ccco2)c1Cl [Compound 37-125, 5-Chloro-2-(4-chlorophenyl)-4-(furan-2-ylmethylamino)-pyrimidine-6-carboxylic acid]
pest or weed control at 1000 g/ha [1]: 100%
pest or weed control at 1000 g/ha (Setaria faberi (SETFA) [2]): 100%
pest or weed control at 1000 g/ha [3]: 70%
pest or weed control at 1000 g/ha [4]: 100%
pest or weed control at 1000 g/ha [5]: 90%
pest or weed control at 1000 g/ha (Solanum nigrum (SOLNI) [6]): 100%
pest or weed control at 1000 g/ha [7]: 40%
pest or weed control at 1000 g/ha (Setaria faberi (SETFA) [8]): 90%
pest or weed control at 1000 g/ha [9]: 50%
pest or weed control at 1000 g/ha [10]: 100%
pest or weed control at 1000 g/ha [11]: 90%
pest or weed control at 1000 g/ha (Solanum nigrum (SOLNI) [12]): 100%

COC(=O)c1nc(-c2ccc(Cl)cc2)nc(NC2CC2)c1Cl [Compound 40-1, 5-Chloro-2-(4-chloro-phenyl)-4-cyclo-propylamino-6-methoxycarbonyl-pyrimidine]
pest or weed control at 1000 g/ha [1]: 70%
pest or weed control at 1000 g/ha (Setaria faberi (SETFA) [2]): 90%
pest or weed control at 1000 g/ha [3]: 40%
pest or weed control at 1000 g/ha [4]: 100%
pest or weed control at 1000 g/ha [5]: 50%
pest or weed control at 1000 g/ha (Solanum nigrum (SOLNI) [6]): 100%
pest or weed control at 1000 g/ha [7]: 30%
pest or weed control at 1000 g/ha (Setaria faberi (SETFA) [8]): 30%
pest or weed control at 1000 g/ha [9]: 40%
pest or weed control at 1000 g/ha [10]: 100%
pest or weed control at 1000 g/ha [11]: 50%
pest or weed control at 1000 g/ha (Solanum nigrum (SOLNI) [12]): 40%

COC(=O)c1nc(-c2ccc(Cl)cc2)nc(NCc2ccccc2)c1Cl [Compound 40-60, 5-Chloro-2-(4-chlorophenyl)-6-methoxycarbonyl-4-(phenylmethylamino) pyrimidine]
pest or weed control at 1000 g/ha [1]: 100%
pest or weed control at 1000 g/ha (Setaria faberi (SETFA) [2]): 0%
pest or weed control at 1000 g/ha [3]: 0%
pest or weed control at 1000 g/ha [4]: 60%
pest or weed control at 1000 g/ha [5]: 0%
pest or weed control at 1000 g/ha (Solanum nigrum (SOLNI) [6]): 70%
pest or weed control at 1000 g/ha [7]: 0%
pest or weed control at 1000 g/ha (Setaria faberi (SETFA) [8]): 0%
pest or weed control at 1000 g/ha [9]: 20%
pest or weed control at 1000 g/ha [10]: 90%
pest or weed control at 1000 g/ha [11]: 50%
pest or weed control at 1000 g/ha (Solanum nigrum (SOLNI) [12]): 30%

C=Cc1c(NCc2ccco2)nc(-c2ccc(Cl)cc2)nc1C(=O)OC [Compound 67-125, 2-(4-Chlorophenyl)-5-ethenyl-4-(furan-2-ylmethylamino)-6-methoxycarbonyl-pyrimidine]
pest or weed control at 1000 g/ha [1]: 80%
pest or weed control at 1000 g/ha (Setaria faberi (SETFA) [2]): 0%
pest or weed control at 1000 g/ha [3]: 30%
pest or weed control at 1000 g/ha [4]: 100%
pest or weed control at 1000 g/ha [5]: 40%
pest or weed control at 1000 g/ha (Solanum nigrum (SOLNI) [6]): 90%
pest or weed control at 1000 g/ha [7]: 40%
pest or weed control at 1000 g/ha (Setaria faberi (SETFA) [8]): 10%
pest or weed control at 1000 g/ha [9]: 50%
pest or weed control at 1000 g/ha [10]: 100%
pest or weed control at 1000 g/ha [11]: 20%
pest or weed control at 1000 g/ha (Solanum nigrum (SOLNI) [12]): 20%

COc1c(Cl)ccc(-c2nc(NCC3CC3)c(Cl)c(C(=O)O)n2)c1F [Compound 109-43, 5-Chloro-2-(4-chloro-2-fluoro-3-methoxyphenyl)-4-cyclopropylmethyl-aminopyrimidine-6-carboxylic acid]
pest or weed control at 1000 g/ha [1]: 80%
pest or weed control at 1000 g/ha (Setaria faberi (SETFA) [2]): 90%
pest or weed control at 1000 g/ha [3]: 90%
pest or weed control at 1000 g/ha [4]: 100%
pest or weed control at 1000 g/ha [5]: 100%
pest or weed control at 1000 g/ha (Solanum nigrum (SOLNI) [6]): 100%
pest or weed control at 1000 g/ha [7]: 70%
pest or weed control at 1000 g/ha (Setaria faberi (SETFA) [8]): 60%
pest or weed control at 1000 g/ha [9]: 10%
pest or weed control at 1000 g/ha [10]: 100%
pest or weed control at 1000 g/ha [11]: 30%
pest or weed control at 1000 g/ha (Solanum nigrum (SOLNI) [12]): 90%

COc1c(Cl)ccc(-c2nc(NCc3ccco3)c(Cl)c(C(=O)O)n2)c1F [Compound 109-125, 5-Chloro-2-(4-chloro-2-fluoro-3-methoxyphenyl)-4-(furan-2-yl-methyl-amino)pyrimidine-6-carboxylic acid]
pest or weed control at 1000 g/ha [1]: 100%
pest or weed control at 1000 g/ha (Setaria faberi (SETFA) [2]): 90%
pest or weed control at 1000 g/ha [3]: 70%
pest or weed control at 1000 g/ha [4]: 100%
pest or weed control at 1000 g/ha [5]: 80%
pest or weed control at 1000 g/ha (Solanum nigrum (SOLNI) [6]): 90%
pest or weed control at 1000 g/ha [7]: 100%
pest or weed control at 1000 g/ha (Setaria faberi (SETFA) [8]): 90%
pest or weed control at 1000 g/ha [9]: 70%
pest or weed control at 1000 g/ha [10]: 100%
pest or weed control at 1000 g/ha [11]: 90%
pest or weed control at 1000 g/ha (Solanum nigrum (SOLNI) [12]): 100%

COC(=O)c1nc(-c2ccc(Cl)c(OC)c2F)nc(NCC2CC2)c1Cl [Compound 112-43, 5-Chloro-2-(4-chloro-2-fluoro-3-methoxy-phenyl)-4-cyclo-propylmethylamino-6-methoxycarbonyl-pyrimidine]
pest or weed control at 1000 g/ha [1]: 70%
pest or weed control at 1000 g/ha (Setaria faberi (SETFA) [2]): 80%
pest or weed control at 1000 g/ha [3]: 40%
pest or weed control at 1000 g/ha [4]: 100%
pest or weed control at 1000 g/ha [5]: 80%
pest or weed control at 1000 g/ha (Solanum nigrum (SOLNI) [6]): 90%
pest or weed control at 1000 g/ha [7]: 80%
pest or weed control at 1000 g/ha (Setaria faberi (SETFA) [8]): 30%
pest or weed control at 1000 g/ha [9]: 40%
pest or weed control at 1000 g/ha [10]: 60%
pest or weed control at 1000 g/ha [11]: 60%
pest or weed control at 1000 g/ha (Solanum nigrum (SOLNI) [12]): 70%

COC(=O)c1nc(-c2ccc(Cl)c(OC)c2F)nc(NCc2ccco2)c1Cl [Compound 112-125, 5-Chloro-2-(4-chloro-2-fluoro-3-methoxyphenyl)-4-(furan-2-yl-methyl-amino)-6-methoxy-carbonylpyrimidine]
pest or weed control at 1000 g/ha [1]: 90%
pest or weed control at 1000 g/ha (Setaria faberi (SETFA) [2]): 100%
pest or weed control at 1000 g/ha [3]: 80%
pest or weed control at 1000 g/ha [4]: 100%
pest or weed control at 1000 g/ha [5]: 90%
pest or weed control at 1000 g/ha (Solanum nigrum (SOLNI) [6]): 100%
pest or weed control at 1000 g/ha [7]: 100%
pest or weed control at 1000 g/ha (Setaria faberi (SETFA) [8]): 90%
pest or weed control at 1000 g/ha [9]: 70%
pest or weed control at 1000 g/ha [10]: 100%
pest or weed control at 1000 g/ha [11]: 100%
pest or weed control at 1000 g/ha (Solanum nigrum (SOLNI) [12]): 90%

COC(=O)c1nc(-c2ccc(Cl)c(OC)c2F)nc(NCc2ccc(C)o2)c1Cl [Compound 112-135, 5-Chloro-2-(4-chloro-2-fluoro-3-methoxyphenyl)-6-methoxycarbonyl-4-[(5-methylfuran-2-yl)methylamino)-pyrimidine]
pest or weed control at 1000 g/ha [1]: 80%
pest or weed control at 1000 g/ha (Setaria faberi (SETFA) [2]): 90%
pest or weed control at 1000 g/ha [3]: 70%
pest or weed control at 1000 g/ha [4]: 100%
pest or weed control at 1000 g/ha [5]: 90%
pest or weed control at 1000 g/ha (Solanum nigrum (SOLNI) [6]): 90%
pest or weed control at 1000 g/ha [7]: 100%
pest or weed control at 1000 g/ha (Setaria faberi (SETFA) [8]): 90%
pest or weed control at 1000 g/ha [9]: 70%
pest or weed control at 1000 g/ha [10]: 100%
pest or weed control at 1000 g/ha [11]: 90%
pest or weed control at 1000 g/ha (Solanum nigrum (SOLNI) [12]): 100%
